In patent publication US5594001A, “Polycyclic systems, and derivatives thereof, as neurotransmitter release enhancers useful in the treatment of cognitive disorders” (The DuPont Merck Pharmaceutical Company, priority 1994, dated 1997):

How the values were obtained:
[1] = tested on: stimulus-induced acetylcholine release, slices from the parietal cortex; assay: Neurotransmitter (ACh) release assay, rat cortex slices, K+ stimulated; format: cell-based, rat (male Wistar); details: Table II, 10 μM, % increase of drug-induced ACh release
Method in brief: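 Male Wistar rat parietal cortex slices prelabelled 30 min at 37 °C with 3H-choline, then superfused at 37 °C with Krebs-Ringer containing […] hemicholinium-3 and collected in 4 min fractions. Release evoked twice by 4 min 25 mM K+; compound present during the second stimulus, with S2/S1 tritium ratio compared with drug-free controls.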

[2] = tested on: ACh level in the rat hippocampus; assay: Microdialysis, ACh levels in the rat hippocampus in vivo; parameters: species or system rat (male Wistar); details: Table IV
Method in brief: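 Male Wistar rats with dorsal hippocampal probes were perfused with aCSF containing 100 μM physostigmine, and 20-min dialysates were assayed by HPLC-EC. After 3 baseline samples, drug or vehicle was given and sampling continued 3 h. ACh peak heights are expressed as percent change over mean baseline.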

[3] = tested on: memory disruption induced by hypoxia, male CD rats; assay: Rat Passive Avoidance (PA) Hypoxia Induced Amnesia; format: in vivo, rat (male CD); details: Table II; SC; median retention latency vs vehicle
Description: Rat Passive Avoidance (PA) Hypoxia Induced Amnesia:
Unfasted male CD rats, weighing between 165-210 grams, were trained in a PA apparatus using the following procedure: rats were placed in the clear side of the two compartment chamber and allowed 90 seconds to enter the dark compartment. Ten seconds after entering the dark chamber, a 3 second footshock (1.0 mA) was applied to the grid floor followed by an additional 10 second delay, and another 3 second footshock was applied. Retentions were tested 4 hours later. The rats were allowed 300 seconds to enter the dark compartment; time was taken. Memory disruption was induced by exposing the rats to a gas mixture containing 6.5% oxygen supplemented with nitrogen for 30 minutes before passive avoidance training. Doses of the test compound were administered (0.1 ml/100 g, SC.) relative to time of PA training.

O=C1N(c2ccccc2)c2ccccc2C1(Cc1ccncc1)Cc1ccncc1 [linopirdine, 3,3-bis-(4-pyridinylmethyl)-1-phenylindolin-2-one, reference compound]
activation at 10 µM [1]: 408% | AUC, Area % under the curve ([2]; 5 mg/kg, vehicle water): 83 ± 73% | Peak, maximal % increase of ACh release over baseline ([2]; 5 mg/kg, vehicle water): 50 ± 16% | time of Peak after administration ([2]; 5 mg/kg, vehicle water): 40 min | Duration, minutes of release above statistical significance ([2]; 5 mg/kg, vehicle water, NSP = no significant points): 20 min | AUC, Area % under the curve ([2]; 10 mg/kg, vehicle methocel): 212 ± 61% | Duration, minutes of release above statistical significance ([2]; 10 mg/kg, vehicle methocel): 100 min | Peak, maximal % increase of ACh release over baseline ([2]; 10 mg/kg, vehicle methocel): 62 ± 15% | time of Peak after administration ([2]; 10 mg/kg, vehicle methocel): 40 min | AUC, Area % under the curve ([2]; 10 mg/kg, vehicle water): 191 ± 68% | Duration, minutes of release above statistical significance ([2]; 10 mg/kg, vehicle water): 60 min | Peak, maximal % increase of ACh release over baseline ([2]; 10 mg/kg, vehicle water): 56 ± 7% | time of Peak after administration ([2]; 10 mg/kg, vehicle water): 40 min | AUC, Area % under the curve ([2]; 20 mg/kg, vehicle methocel): 600 ± 71% | Duration, minutes of release above statistical significance ([2]; 20 mg/kg, vehicle methocel): 140 min | Peak, maximal % increase of ACh release over baseline ([2]; 20 mg/kg, vehicle methocel): 117 ± 36% | time of Peak after administration ([2]; 20 mg/kg, vehicle methocel): 40 min | AUC, Area % under the curve ([2]; 20 mg/kg, vehicle water): 315 ± 108% | Duration, minutes of release above statistical significance ([2]; 20 mg/kg, vehicle water): 100 min | Peak, maximal % increase of ACh release over baseline ([2]; 20 mg/kg, vehicle water): 68 ± 26% | time of Peak after administration ([2]; 20 mg/kg, vehicle water): 100 min | PA Hypoxia [3]: Active
